Results reported in patent publication US8404829B2, “Predictive and therapeutic markers in ovarian cancer” (The Regents of the University of California, priority 2005, dated 2013).
“Also recorded” adds a separate entry of the source.

Key:
HEYA8 or SKOV3ip1 tumors = experiment: Therapeutic study in ovarian tumor xenografts (tumor size); type: in vivo, mice; settings: siRNA 150 μg/kg twice weekly, paclitaxel 100 μg weekly, four weeks
Procedure: For therapeutic studies, mice were injected with HEYA8 or SKOV3ip1 cells. One week later, mice were treated twice weekly with DOPC-EPHA2 siRNA (150 μg/kg) alone or in combination with weekly paclitaxel (100 μg), for four consecutive weeks.

[1] = system: CAOV4 and HEY cell lines in which PVT1 and MYC are highly amplified; experiment: Cell cycle / proliferation after siRNA treatment (BrdUrd/DNA distributions), PVT1/MYC amplified lines; type: cell-based, human; settings: for cell cycle progression (BrdUrd/DNA distributions): CAOV4 and HEY, 48 hours after siRNA treatment, FIG. 7A; for cell proliferation / G1-phase block: ovarian cancer cell lines in which PVT1 is amplified and over expressed
Procedure: (§1) In this system, stock cell lines are transferred from flasks and 5×10^4 cells will be seeded into 24-well cell culture plates and transferred to a multi-plate incubator. Individual wells are treated with 40-120 nM siRNA and 2.5-7.5 μg/ml Lipofectamine 2000 (Invitrogen) in […] Opti-MEM reduced serum medium (Invtrogen) for 4 hours (with or without drug) in order to induce the necessary experimental perturbations. After 4 hours, the Opti-MEM are replaced with complete culture medium and the cells cultured for an additional 44 hours. Cell lysates then are extracted and re-formatted into standard 96-well microtiter plates using a Tecan multi-channel liquid handling system. These plates are then fed separately into RNA transcript, protein expression or cell analysis pipelines. For cellular profiling, treated cell culture plates are transported to a Cellomics High Content Imaging system (see below). Transcript profiling is accomplished using Affymetrix U133A/B arrays processed using the Affymetrix High Throughput Analysis system (installed at LBNL in December 2004 under an Affymetrix early access agreement). Protein profiling is accomplished using reverse phase protein at MD Anderson using lysate array technology in cases where suitable antibodies exist. Important pathway proteins are assessed using western blotting in cases where antibodies are not sufficiently specific for use on protein lysate arrays.
(§2) A Becton Dickinson cytometer can be used to measure DNA/BrdUrd distributions and/or DNA distributions during treatment. […] For BrdUrd/DNA analysis, cells are pulse labeled for 30 min. with 1 μM BrdUrd, fixed in 70% ethanol, treated with RNase, denatured and stained with propidium iodide (PI) and a fluorescently labeled antibody against BrdUrd as described in Dolbeare, F., Gratzner, H., Pallavicini, M. G. & Gray, J. W. Flow cytometric measurement of total DNA content and incorporated bromodeoxyuridine. Proc Natl Acad Sci USA 80, 5573-7 (1983), and placed in 96 well trays for analysis.
In FIGS. 7B and 7C, the BrdU data is measuring proportions of cell cycle phases of ovarian cancer cell lines that overexpress PVT1. Referring to the graphs in FIGS. 7B and 7C, cells were left untreated (control, blue bar), treated with lipofectamine 2000 (lipo, purple bar) and green fluorescent protein (GFP; green bar) as controls or treated with PVT1 siRNA (PVT1 si, yellow bar, SEQ ID NO: 3 and 4). The error bars are standard deviation values from more than one experiment. If there are no error bars on a column, it means the experiment was not repeated.

[2] = system: OV90, in which MYC and PVT1 are not amplified; cell lines not expressing PVT1; experiment: Cell cycle / growth after siRNA treatment (BrdUrd/DNA distributions), unamplified lines; type: cell-based, human; settings: for cell cycle progression (BrdUrd/DNA distributions): OV90 (unamplified), 48 hours after siRNA treatment, FIG. 7A
HEY and CAOV4 cells = experiment: Apoptosis after siRNA treatment (phase contrast, PI DNA content distribution), PVT1 amplified lines; type: cell-based, human; settings: for apoptosis induced DNA fragments (DNA distribution below the G1/diploid peak): CAOV4 cells, FIG. 9A; for induction of apoptosis / cell death: ovarian cancer cell lines in which PVT1 is amplified and over expressed
Procedure: as §1, §2
Referring again to FIG. 8, an additional measure of apoptosis can include staining with an Alexa Fluor® 488 conjugate of annexin V (Molecular Probes) and staining with propidium iodide (PI). PI is impermeable to apoptotic cells and live cells, but can enter and bind nucleic acids in necrotic cells. An apoptotic index can be assessed by measuring the fraction of “sub diploid” cells after staining for DNA content using PI as illustrated in FIG. 8A. Cells are fixed in 70% ethanol, treated with RNAse and placed in 96-well trays for DNA content analysis.

[3] = system: ovarian cancer cell lines that do not amplify PVT1; experiment: High content imaging for apoptosis (Cellomics Multiparameter Apoptosis 1 HitKit), lines that do not amplify PVT1; type: cell-based, human
From the text: (§3) A high content fluorescence image analysis system at LBNL (Cellomics, KineticScan) was used to characterize cellular responses to siRNA inhibitors including proliferation rate, apoptotic rate and motility. The KineticScan is an automated imaging instrument that scans through the bottom of clear-bottom 24-well plates, focuses on a field of cells, and acquires images at each selected color channel. The Cellomics software identifies and measures individual features and structures within each cell in a field of cells, so that up to hundreds of cell samples can be analyzed in parallel. The software then tabulates and presents the results in user-defined formats.
(§4) Referring to FIG. 10, PVT siRNA-treated ovarian cell lines were analyzed by high content imaging for apoptosis. Apoptotic cells were detected based on nuclear morphology, mitochondrial mass and/or membrane potential, and f-actin content following staining with the Cellomics Multiparameter Apoptosis 1 HitKit™. Nuclear morphology (i.e., condensation or fragmentation) are measured after staining with Hoechst 33342. Mitochondrial membrane potential and mitochondrial mass are measured after staining with MitoTracker® Red. F-actin is measured after staining with an Alexa Fluor® 488 conjugate of phalloidin (Ax488-ph). Changes in the actin cytoskeleton have been used as a potential parameter related to apoptotic changes. […]

[4] = system: cell lines that do not amplify or over express PVT1; experiment: Apoptosis / cell death after PVT1 siRNA, lines without PVT1 amplification; type: cell-based, human; settings: cell lines in which PVT1 is not amplified or over expressed
Procedure: as §1, with “Transcript profiling is accomplished using Affymetrix U133A/B arrays processed using the Affymetrix High Throughput Analysis system (installed at LBNL in December 2004 under an Affymetrix early access agreement). Protein profiling is accomplished using reverse phase protein at MD Anderson using lysate array technology in cases where suitable antibodies exist.” left out
Referring again to FIG. 8, an additional measure of apoptosis can include staining with an Alexa Fluor® 488 conjugate of annexin V (Molecular Probes) and staining with propidium iodide (PI). […] An apoptotic index can be assessed by measuring the fraction of “sub diploid” cells after staining for DNA content using PI as illustrated in FIG. 8A. […]

[5] = system: ovarian cancer cell lines that amplify PVT1; experiment: High content imaging for apoptosis (Cellomics Multiparameter Apoptosis 1 HitKit), lines that amplify PVT1; type: cell-based, human
From the text: as §3, §4

| Compound | effect on tumor size (HEYA8 or SKOV3ip1 tumors) | cell cycle progression (BrdUrd/DNA distributions) [1] | cell proliferation / G1-phase block [1] | cell cycle progression (BrdUrd/DNA distributions) [2] | apoptosis induced DNA fragments (DNA distribution below the G1/diploid peak) (HEY and CAOV4 cells) | induction of apoptosis / cell death (HEY and CAOV4 cells) | S phase proportion (BrdU) ([1]; cell lines overexpressing PVT1, vs untreated, lipofectamine 2000 and GFP controls, FIG. 7B) | cell proliferation / G1-phase block ([1]; listed as siRNAs against PVT1) | growth inhibition ([2]; cell lines that do not amplify or over express PVT1) | effect on cell cycle (S phase, BrdU) ([2]; ovarian cancer cell lines not expressing PVT1, FIG. 7C) | F-actin content and thereby apoptosis ([3]; cell lines having no increased PVT1 amplification, FIG. 10A) | apoptotic levels (nuclear morphology, mitochondrial mass/potential, f-actin) ([3]; cell lines that do not amplify PVT1) | induction of apoptosis / cell death [4] | induction of apoptosis / cell death ([4]; listed as siRNA against PVT1) | apoptotic blebbing (phase contrast photomicrographs) (HEY and CAOV4 cells; HEY cells, treated 48 hours, FIG. 8) | induction of apoptosis / cell death (HEY and CAOV4 cells; listed as siRNA against PVT1) | induction of apoptosis / cell death (HEY and CAOV4 cells; listed as siRNAs against PVT1) | apoptotic levels (nuclear morphology, mitochondrial mass/potential, f-actin) ([5]; cell lines that amplify PVT1, FIG. 10C) | F-actin content ([5]; cell lines which overamplify PVT1, after PVT1 siRNA) |
| --- | --- | --- | --- | --- | --- | --- | --- | --- | --- | --- | --- | --- | --- | --- | --- | --- | --- | --- | --- |
| CC(=O)O[C@H]1C(=O)[C@@]2(C)[C@H]([C@H](OC(=O)c3ccccc3)[C@]3(O)C[C@H](OC(=O)[C@H](O)[C@@H](NC(=O)c4ccccc4)c4ccccc4)C(C)=C1C3(C)C)[C@]1(OC(C)=O)CO[C@@H]1C[C@@H]2O [paclitaxel] | effective in reducing tumor size | – | – | – | – | – | – | – | – | – | – | – | – | – | – | – | – | – | – |
| MYC siRNA: siRNA against c-myc; sense GAGGCGAACACACAACGUC (SEQ ID NO: 18), antisense GACGUUGUGUGUUCGCCUC (SEQ ID NO: 19) (listed as RNA, chemistry not given here) | – | strongly inhibited | blocks cells in the G1-phase of the cell cycle | not in the unamplified line | not after MYC inhibition | does not induce apoptosis | – | – | – | – | – | – | – | – | – | – | – | – | – |
| PVT1 siRNA: siRNA against PVT1; sense CAGCCAUCAUGAUGGUACU (SEQ ID NO: 3), antisense AGUACCAUCAUGAUGGCUG (SEQ ID NO: 4) (listed as RNA, chemistry not given here) | – | strongly inhibited | inhibit cell proliferation by blocking cell in the G1-phase of the cell cycle; also recorded: blocks cells in the G1 phase of the cell cycle | not in the unamplified line | Apoptosis induced DNA fragments are present after PVT1 inhibition | inducing cell death; also recorded: induces apoptosis | much shorter than in the 3 control columns | particularly effective in inhibiting proliferation | do not inhibit growth | does not affect the cell cycle | remained low | normal apoptotic levels | do not inhibit growth or induce cell death | no apoptotic response | apoptotic blebbing after siRNA inhibition of PVT1 is apparent | induced apoptosis | inducing apoptosis | increased apoptotic levels, higher than levels of cells treated with paclitaxel | Increased F-actin content |
